Patent US8680290B2, “Isoxazoline derivatives and their use as herbicides” (Syngenta Limited, priority 2004, dated 2014)

Experiments:
[1] = test system: Monocotyledonous and dicotyledonous test plants; assay: Example B1 herbicidal action, application pre-emergence (Table B1b); type: in vivo; details: 250 g/ha, evaluated after 4 weeks
How it was run: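 Compounds sprayed as aqueous solution from acetone/Emulsogen EL/NMP/dipropylene glycol monomethyl ether/X-77 formulation onto soil right after sowing (pre-emergence) or onto 8–9-day plants (post-emergence); greenhouse-grown. Damage scored 0 (none) to 10 (total) after 4 weeks pre- or 3 weeks post-emergence.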

[2] = test system: Monocotyledonous and dicotyledonous test plants; assay: Example B1 herbicidal action, application post-emergence (Table B1a); type: in vivo; details: 250 g/ha, evaluated after 3 weeks, scale 0-10
Procedure: Monocotyledonous and dicotyledonous test plants were sown in seed trays in standard soil. Immediately after sowing (pre-emergence) or after 8 to 9 days cultivation (post-emergence), the test compounds were applied by spraying in the form of an aqueous solution derived from the formulation of the technical active ingredient in 0.6 ml acetone and 45 ml formulation solution containing 10.6% Emulsogen EL (CAS RN 61791-12-6), 42.2% N-methylpyrrolidone, 42.2% dipropylene glycol monomethyl ether (CAS RN 34590-94-8) and 0.2% X-77 (CAS RN 11097-66-8). The test plants were then grown in a greenhouse under optimum conditions. After a test duration of 3 weeks (post-emergence) or 4 weeks (pre-emergence), the test was evaluated (10=total damage to plant, 0=no damage to plant).

Row | SMILES | herbicidal action (damage rating 0-10), Amaranthus [1] | herbicidal action (damage rating 0-10), Digitaria [1] | herbicidal action (damage rating 0-10), Panicum [1] | herbicidal action (damage rating 0-10), Setaria [1] | herbicidal action (damage rating 0-10), Sida [1] | herbicidal damage rating, Abutilon [2] | herbicidal damage rating, Panicum [2] | herbicidal damage rating, Setaria [2] | herbicidal damage rating, Sida [2] | herbicidal damage rating, Amaranthus [2] | herbicidal damage rating, Digitaria [2]
1 | CC1(C)CC(S(=O)(=O)C(F)(F)c2cccnc2Cl)=NO1 [8.04] | 10 | 10 | 10 | 10 | 3 | 3 | 3 | 2 | 0 | – | –
2 | CC1(C)CC(S(=O)(=O)C(F)(F)c2ccccc2-c2ccccc2)=NO1 [1.117] | 9 | 10 | 10 | 8 | 4 | 4 | 5 | 6 | 6 | 7 | 7
3 | CC1(C)CC(S(=O)(=O)C(Br)c2ccccc2C#N)=NO1 (racemic) [1.83] | 9 | 9 | 10 | 9 | 0 | 5 | 7 | 7 | 3 | 5 | 9
4 | CC1(C)CC(S(=O)(=O)C(F)(Cl)c2ccccc2[S+]([O-])C(F)(F)F)=NO1 (stereo not shown) [1.97] | 8 | 10 | 10 | 9 | 0 | 4 | 5 | 7 | 0 | 5 | 8
5 | CC1(C)CC(S(=O)(=O)C(Br)c2cccc(F)c2F)=NO1 (stereo not shown) [1.132] | 10 | 10 | 10 | 10 | 4 | 3 | 8 | 5 | 0 | 3 | 8
6 | Cn1nc(C(F)(F)F)c(C(F)(F)S(=O)(=O)C2=NOC(C)(C)C2)c1OC(F)F [2.11] | 10 | 10 | 10 | 10 | 9 | 7 | 7 | 7 | 7 | 5 | 7
7 | CC1(C)CC(S(=O)(=O)C(F)(F)c2cc(F)ccc2F)=NO1 [1.114] | 10 | 10 | 10 | 10 | 9 | 3 | 3 | 8 | 2 | 3 | 8
8 | CC1(C)CC(S(=O)(=O)C(F)(Cl)c2cccnc2Cl)=NO1 (stereo not shown) [8.03] | 8 | 10 | 10 | 8 | 6 | 4 | 6 | 4 | 0 | 0 | 7
9 | Cc1ccc(F)c(C(F)S(=O)(=O)C2=NOC(C)(C)C2)c1F (stereo not shown) [1.105] | 10 | 8 | 10 | 10 | 7 | 2 | 5 | 4 | 7 | 5 | 8
10 | CC1(C)CC(S(=O)(=O)C(F)(Cl)c2cc(F)cc(F)c2)=NO1 (stereo not shown) [1.125] | 10 | 10 | 10 | 10 | 7 | 0 | 7 | 5 | 3 | 0 | 8
11 | CC1(C)CC(S(=O)(=O)C(F)c2cccnc2Cl)=NO1 (stereo not shown) [8.02] | 7 | 9 | 10 | 8 | 0 | 2 | 3 | 3 | 3 | 0 | 6
12 | COc1cc(OC)cc(C(F)(F)S(=O)(=O)C2=NOC(C)(C)C2)c1 [1.76] | 9 | 9 | 10 | 8 | 3 | 5 | 5 | 5 | 5 | 3 | –
13 | Cn1nc(C(F)(F)F)c(C(Cl)S(=O)(=O)C2=NOC(C)(C)C2)c1OC(F)F (stereo not shown) [2.16] | 10 | 10 | 10 | 10 | 7 | 7 | 0 | 8 | 7 | 8 | 4
14 | Cn1nc(C(F)(F)F)c(C(F)(Cl)S(=O)(=O)C2=NOC(C)(C)C2)c1OCC(F)(F)F (stereo not shown) [2.12] | 10 | 10 | 10 | 10 | 8 | 6 | 7 | 7 | 6 | 0 | 6
15 | CC1(C)CC(S(=O)(=O)C(F)(F)c2ccccc2F)=NO1 [1.94] | 10 | 10 | 10 | 10 | 8 | 5 | 7 | 8 | 0 | 7 | 8
16 | CC1(C)CC(S(=O)(=O)C(C)(F)c2c(F)cccc2F)=NO1 (stereo not shown) [1.55] | 9 | 10 | 10 | 10 | 5 | 5 | 5 | 7 | 3 | 3 | 6
17 | CC1(C)CC(S(=O)(=O)C(F)(F)c2ccccc2C(F)(F)F)=NO1 [1.65] | 10 | 10 | 10 | 10 | 8 | 2 | 7 | 5 | 2 | 0 | 8
